We go through 8 compounds from patent publication US5610310A, “Cyclic lipid derivatives as potent PAF antagonists” (Pohang Iron & Steel Co., Ltd, priority 1995, dated 1997).

Experiment [1] concerns PAF-induced [^14 C]-serotonin release, rabbit platelets. In words: Inhibitory action on PAF-induced [^14 C]-serotonin release. The experiment is classed as cell-based, rabbit (New Zealand white). The conditions noted are these: Oryctolagus cuniculus, Platelet, PAF 1×10^-9 M; for inhibition at 0.2 µM: test compound 2 × 10^-7 M; for inhibition at 0.05 µM: test compound 5 × 10^-8 M; for inhibition at 0.005 µM: test compound 5 × 10^-9 M. On the procedure:
Inhibitory action on PAF-induced [^14 C]-serotonin release
Blood was collected from the hearts of conscious New Zealand white male rabbits weighing 2 to 3 kg. The blood was immediately subjected to a centrifuge at 1400 rpm for 10 minutes to obtain platelet rich plasma(PRP).PRP was incubated with a trace mount of [^14 C]-serotonin for 20 minutes at 22° C. Prelabelled platelets were prepared by centrifugation at 3500 rpm for 10 minutes. The test compound was added to 80 μl of [^14 C] serotonin-labeled platelets in plastic test tubes, and the mixture was incubated for 2 minutes. PAF (1×10^-9 M) was then added to the reaction mixture and incubated for additional 2 minutes at which time 10 μl of cold formaldehyde was added to stop the reactions. The tubes were immediately cooled to 4° C. and centrifuged at 12000 rpm for 2 minutes. The supernatants (80 μl) were assayed for percentage of [^14 C] serotonin release by the conventional methods of measuring ^14 C counts.

Experiment [2] has as its target T1, PAF receptor (rabbit platelet membranes) (Oryctolagus cuniculus, UniProt G1TEI7).
T1 construct: Rabbit platelets were prepared by centrifugation and washing; tissue Pel-Freez (Rogers, AR); host or cells: rabbit platelets (washed, from citrated whole blood; lysed membranes)
As to the kind of experiment: PAF Receptor Binding Assay. As to conditions: 0.6 nM [^3 H]C18 -PAF, 60 minutes, room temperature, calculated as IC50/2. On the procedure: PAF Receptor Binding Assay Citrated whole rabbit blood was obtained from Pel-Freez(Rogers, AR). Rabbit platelets were prepared by centrifugation and washing. The platelets were lysed by freeze-thawing and sonification; Platelet membranes were prepared by centrifugation and washing. Final membrane preparation were stored frozen in 10 mM Tris/5 mM MgCl2 /2 mM EDTA (TME buffer, pH 7.0) with 0.25M sucrose added for membrane stabilization. […] The final volume of the assay was 100 μl. […] The […] and removed. The bound radioactivity was quantitated with a Berthold TLC-Linear Analyzer model LB2842. […] Experiments were repeated at least once. […] Ki values of inhibitory binding constants were calculated according to the methods of the literature[Cheng et al., Biochem.

The test system of experiment [3] is PAF-induced platelet aggregation, rabbit platelet-rich plasma. In words: Inhibitory action on PAF-induced platelet aggregation. As to conditions: Oryctolagus cuniculus, rabbit PRP, PAF 5×10^-9 M, 37° C. The experiment is classed as cell-based, rabbit (New Zealand white). On the procedure:
Inhibitory action on PAF-induced platelet aggregation Blood was collected from the […] of conscious New Zealand white male rabbits weighing 2 to 3 kg using citric acid as an anticoagulant (one volume pan of 3% citric acid relative to 9 volume parts of the whole blood). […] PRP was diluted with PPP to adjust the number of platelets to about 3×10^5 /μl. […] Platelet aggregation was then examined by means of turbidimetry [Born, Nature, 194, 927(1962)] with dual channel aggegometer (Chrono-Log. Corp., Havertown, Pa.). As the control, physiological saline without test sample was used. The platelet aggregation inhibiting activities of the test sample are expressed as IC50, that is the concentration of the compound at which 50% of the aggregation is inhibited.

Each structure is given as a SMILES string.

T1 sequence (G1TEI7 1-342): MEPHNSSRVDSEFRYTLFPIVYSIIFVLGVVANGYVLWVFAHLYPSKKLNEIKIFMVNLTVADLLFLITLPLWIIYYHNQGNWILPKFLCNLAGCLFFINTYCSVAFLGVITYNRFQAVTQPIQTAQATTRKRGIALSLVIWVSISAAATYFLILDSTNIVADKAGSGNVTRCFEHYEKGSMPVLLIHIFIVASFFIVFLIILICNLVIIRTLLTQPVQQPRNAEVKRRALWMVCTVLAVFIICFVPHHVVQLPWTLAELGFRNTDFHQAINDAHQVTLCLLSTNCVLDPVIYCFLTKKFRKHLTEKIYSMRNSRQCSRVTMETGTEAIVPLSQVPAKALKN

The term inhibition denotes the percentage by which the read-out fell short of the control. A high value points to a strong effect. Broadly, the Ki is the dissociation constant of the complex between target and ligand, obtained from inhibition or displacement. As usually defined, the IC50 is the point on the concentration scale where inhibition reaches its midpoint. Take `CCCCCCCCCCCCCCCCOC[C@H]1C[C@H](COC(=O)N(Cc2cccc[n+]2CC)C(C)=O)O1` (relative stereo) [Example 2, trans-2-[[N-Acetyl-N-[[[4-[(hexadecyloxy)methyl]-2-oxetanyl]methoxy]carbonyl]amino]methyl]-1-ethyl-pyridinium iodide]: in experiment [1], the inhibition at 0.2 µM came to 98%, at 0.05 µM the inhibition was 93% and 0.005 µM produced 44% inhibition. The Ki in experiment [2] is 14.7 nM. Moreover, 57 nM corresponded to half-maximal inhibition in experiment [3] (IC50).
For `CCCCCCCCCCCCCCCCCCNC(=O)OCC1(COC(=O)N(Cc2cccc[n+]2CC)C(C)=O)CCC1` [Example 14, 2-[[N-Acetyl-N-[[[1-[[(octadecylcarbamoyl)oxy]methyl]-1-cyclobutyl]methoxy]carbonyl]amino]methyl]-1-ethyl-pyridinium iodide], in that order: 99%, 98%, 18%, 6.6 nM and 118 nM.
Take `CCCCCCCCCCCCCCCCOC[C@H]1C[C@@H](COC(=O)N(Cc2cccc[n+]2CC)C(C)=O)O1` (relative stereo) [Example 1, cis-2-[[N-Acetyl-N-[[[2-[(hexadecyloxy)methyl]-4-oxetanyl]methoxy]carbonyl]amino]methyl]-1-ethyl-pyridinium iodide]: at 0.05 µM the inhibition in experiment [1] was 51%. Besides, the inhibition constant Ki in experiment [2] is 21.2 nM. This compound also had an IC50 in experiment [3] of 95 nM.
In experiment [1], `CCCCCCCCCCCCCCCCCCNC(=O)OC[C@@H]1C[C@H](COC(=O)N(Cc2cccc[n+]2CC)C(C)=O)O1` (relative stereo) [Example 3, cis-2-[[N-Acetyl-N-[[[4-[[(octadecylcarbamoyl)oxy]methyl]-2-oxetanyl]methoxy]carbonyl]amino]methyl]-1-ethyl-pyridinium iodide] registered an inhibition at 0.2 µM of 97% and an inhibition at 0.005 µM of 58%.
In turn, `CCCCCCCCCCCCCCCCCCNC(=O)OC[C@H]1C[C@H](COC(=O)N(Cc2cccc[n+]2CC)C(C)=O)O1` (relative stereo) [Example 5, trans-2-[[N-Acetyl-N-[[[4-[[(octadecylcarbamoyl)oxy]methyl]-2-oxetanyl]methoxy]carbonyl]amino]methyl]-1-ethyl-pyridinium iodide] came in with an inhibition at 0.2 µM in experiment [1] of 97%.
For `CCCCCCCCCCCCCCCCCCNC(=O)OCC1(COC(=O)CCCCC[n+]2ccccc2)COC1` [Example 12, N-[5-[[[3-[[(Octadecylcarbamoyl)oxy]methyl]-3-oxetanyl]methoxy]carbonyl]pentyl]pyridinium bromide], in experiment [1], the inhibition at 0.2 µM was 94% and the inhibition at 0.05 µM was found to be 58%.
In the case of `CCCCCCCCCCCCCCCCOCC1(COC(=O)CCCCC[n+]2ccccc2)COC1` [Example 10, N-[5-[[[3-[(Hexadecyloxy)methyl]-3-oxetanyl]methoxy]carbonyl]pentyl]pyridinium bromide], in experiment [1], testing at 0.2 µM gave an inhibition of 86% and the inhibition at 0.05 µM is 43%.
In the case of `CCCCCCCCCCCCCCCCCCNC(=O)OCC1(COC(=O)CCCCC[n+]2ccsc2)COC1` [Example 13, 3-[5-[[[3-[[(Octadecylcarbamoyl)oxy]methyl]-3-oxetanyl]methoxy]carbonyl]pentyl]thiazolium bromide], the inhibition at 0.2 µM in experiment [1] worked out at 92%. Moreover, the Ki in experiment [2] is 30.5 nM. Also, the 50% inhibitory concentration (IC50) in experiment [3] came to 382 nM.
